Legend:
[1] = biological target: Calcium/calmodulin-dependent protein kinase kinase 2 (Homo sapiens) (UniProt Q96RR4); experiment: Inhibition of CAMKKbeta assessed as residual activity at 10 uM using [33P-ATP] by radiometric filter binding assay
[2] = biological target: Serine/threonine-protein kinase Chk1 (Homo sapiens) (UniProt O14757); experiment: Inhibition of CHK1 assessed as residual activity at 10 uM using [33P-ATP] by radiometric filter binding assay
[3] = biological target: Inhibitor of nuclear factor kappa-B kinase subunit beta (Homo sapiens) (UniProt O14920); experiment: Inhibition of IKK-beta assessed as residual activity at 10 uM using [33P-ATP] by radiometric filter binding assay
[4] = biological target: Dual specificity testis-specific protein kinase 1 (Homo sapiens) (UniProt Q15569); experiment: Inhibition of TESK1 assessed as residual activity at 10 uM using [33P-ATP] by radiometric filter binding assay
[5] = biological target: Mitogen-activated protein kinase 10 (Homo sapiens) (UniProt P53779); experiment: Inhibition of JNK3 assessed as residual activity at 10 uM using [33P-ATP] by radiometric filter binding assay
[6] = biological target: Serine/threonine-protein kinase pim-1 (Homo sapiens) (UniProt P11309); experiment: Inhibition of PIM1 assessed as residual activity at 10 uM using [33P-ATP] by radiometric filter binding assay
[7] = biological target: Serine/threonine-protein kinase TBK1 (Homo sapiens) (UniProt Q9UHD2); experiment: Inhibition of TBK1 assessed as residual activity at 10 uM using [33P-ATP] by radiometric filter binding assay
[8] = biological target: Serine/threonine-protein kinase 33 (Homo sapiens) (UniProt Q9BYT3); experiment: Inhibition of STK33 assessed as residual activity at 10 uM using [33P-ATP] by radiometric filter binding assay
[9] = biological target: Glycogen synthase kinase-3 beta (Homo sapiens) (UniProt P49841); experiment: Inhibition of GSK3b assessed as residual activity at 10 uM using [33P-ATP] by radiometric filter binding assay
[10] = biological target: Serine/threonine-protein kinase Nek6 (Homo sapiens) (UniProt Q9HC98); experiment: Inhibition of NEK6 assessed as residual activity at 10 uM using [33P-ATP] by radiometric filter binding assay
[11] = biological target: Inhibitor of nuclear factor kappa-B kinase subunit epsilon (Homo sapiens) (UniProt Q14164); experiment: Inhibition of IKKepsilon assessed as residual activity at 10 uM using [33P-ATP] by radiometric filter binding assay
[12] = biological target: Serine/threonine-protein kinase PAK 4 (Homo sapiens) (UniProt O96013); experiment: Inhibition of PAK4 assessed as residual activity at 10 uM using [33P-ATP] by radiometric filter binding assay
[13] = biological target: Ephrin type-A receptor 2 (Homo sapiens) (UniProt P29317); experiment: Inhibition of EPHA2 assessed as residual activity at 10 uM using [33P-ATP] by radiometric filter binding assay
[14] = biological target: RAC-alpha serine/threonine-protein kinase (Homo sapiens) (UniProt P31749); experiment: Inhibition of PKBalpha assessed as residual activity at 10 uM using [33P-ATP] by radiometric filter binding assay
[15] = biological target: Serine/threonine-protein kinase PAK 2 (Homo sapiens) (UniProt Q13177); experiment: Inhibition of PAK2 assessed as residual activity at 10 uM using [33P-ATP] by radiometric filter binding assay
[16] = biological target: Ribosomal protein S6 kinase beta-1 (Homo sapiens) (UniProt P23443); experiment: Inhibition of S6K1 assessed as residual activity at 10 uM using [33P-ATP] by radiometric filter binding assay
[17] = biological target: Interleukin-1 receptor-associated kinase 4 (Homo sapiens) (UniProt Q9NWZ3); experiment: Inhibition of IRAK4 assessed as residual activity at 10 uM using [33P-ATP] by radiometric filter binding assay
[18] = biological target: Serine/threonine-protein kinase pim-2 (Homo sapiens) (UniProt Q9P1W9); experiment: Inhibition of PIM2 assessed as residual activity at 10 uM using [33P-ATP] by radiometric filter binding assay
[19] = biological target: Serine/threonine-protein kinase BRSK2 (Homo sapiens) (UniProt Q8IWQ3); experiment: Inhibition of BRSK2 assessed as residual activity at 10 uM using [33P-ATP] by radiometric filter binding assay
[20] = biological target: Serine/threonine-protein kinase pim-3 (Homo sapiens) (UniProt Q86V86); experiment: Inhibition of PIM3 assessed as residual activity at 10 uM using [33P-ATP] by radiometric filter binding assay
[21] = biological target: Tyrosine-protein kinase Lck (Homo sapiens) (UniProt P06239); experiment: Inhibition of Lck assessed as residual activity at 10 uM using [33P-ATP] by radiometric filter binding assay
[22] = biological target: Interleukin-1 receptor-associated kinase 1 (Homo sapiens) (UniProt P51617); experiment: Inhibition of IRAK1 assessed as residual activity at 10 uM using [33P-ATP] by radiometric filter binding assay
[23] = biological target: 3-phosphoinositide-dependent protein kinase 1 (Homo sapiens) (UniProt O15530); experiment: Inhibition of PDK1 assessed as residual activity at 10 uM using [33P-ATP] by radiometric filter binding assay
[24] = biological target: Serine/threonine-protein kinase PLK1 (Homo sapiens) (UniProt P53350); experiment: Inhibition of PLK1 assessed as residual activity at 10 uM using [33P-ATP] by radiometric filter binding assay
[25] = biological target: Serine/threonine-protein kinase BRSK1 (Homo sapiens) (UniProt Q8TDC3); experiment: Inhibition of BRSK1 assessed as residual activity at 10 uM using [33P-ATP] by radiometric filter binding assay

Chain of Serine/threonine-protein kinase PAK 4 (Homo sapiens) (O96013 whole entry, looked up): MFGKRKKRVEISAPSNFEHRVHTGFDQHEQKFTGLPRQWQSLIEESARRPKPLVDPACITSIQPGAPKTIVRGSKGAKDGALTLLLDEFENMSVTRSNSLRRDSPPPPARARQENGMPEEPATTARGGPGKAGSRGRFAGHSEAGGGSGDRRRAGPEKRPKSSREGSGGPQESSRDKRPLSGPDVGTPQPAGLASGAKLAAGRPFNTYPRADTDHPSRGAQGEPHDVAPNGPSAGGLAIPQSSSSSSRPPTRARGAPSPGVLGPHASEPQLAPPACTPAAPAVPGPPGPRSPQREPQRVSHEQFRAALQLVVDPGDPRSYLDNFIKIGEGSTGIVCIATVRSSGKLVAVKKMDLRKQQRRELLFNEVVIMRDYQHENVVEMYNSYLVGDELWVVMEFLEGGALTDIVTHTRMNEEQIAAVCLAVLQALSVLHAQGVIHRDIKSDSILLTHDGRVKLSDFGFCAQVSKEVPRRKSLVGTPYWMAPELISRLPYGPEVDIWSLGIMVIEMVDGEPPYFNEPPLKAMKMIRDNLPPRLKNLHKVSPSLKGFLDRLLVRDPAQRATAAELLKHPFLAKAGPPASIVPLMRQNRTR
Chain of Serine/threonine-protein kinase TBK1 (Homo sapiens) (Q9UHD2 whole entry): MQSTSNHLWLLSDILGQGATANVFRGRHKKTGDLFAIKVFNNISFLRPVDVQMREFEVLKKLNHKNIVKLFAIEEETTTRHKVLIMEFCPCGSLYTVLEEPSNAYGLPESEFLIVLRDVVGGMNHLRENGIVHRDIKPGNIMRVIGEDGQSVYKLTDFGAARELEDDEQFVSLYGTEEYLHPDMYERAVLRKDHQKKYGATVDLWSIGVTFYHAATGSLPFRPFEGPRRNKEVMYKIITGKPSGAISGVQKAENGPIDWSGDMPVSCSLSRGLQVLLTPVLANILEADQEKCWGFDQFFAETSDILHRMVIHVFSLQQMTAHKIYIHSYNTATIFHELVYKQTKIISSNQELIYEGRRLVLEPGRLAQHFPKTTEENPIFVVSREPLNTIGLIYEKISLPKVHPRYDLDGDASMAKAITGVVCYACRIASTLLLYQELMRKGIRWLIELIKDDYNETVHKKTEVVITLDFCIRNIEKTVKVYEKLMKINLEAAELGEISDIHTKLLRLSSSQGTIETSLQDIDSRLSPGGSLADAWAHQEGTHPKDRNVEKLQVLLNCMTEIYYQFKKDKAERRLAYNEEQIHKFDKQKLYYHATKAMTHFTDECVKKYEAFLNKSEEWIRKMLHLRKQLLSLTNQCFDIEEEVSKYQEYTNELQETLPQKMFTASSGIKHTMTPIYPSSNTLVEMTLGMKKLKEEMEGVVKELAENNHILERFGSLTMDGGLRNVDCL
Chain of Mitogen-activated protein kinase 10 (Homo sapiens) (P53779 whole entry): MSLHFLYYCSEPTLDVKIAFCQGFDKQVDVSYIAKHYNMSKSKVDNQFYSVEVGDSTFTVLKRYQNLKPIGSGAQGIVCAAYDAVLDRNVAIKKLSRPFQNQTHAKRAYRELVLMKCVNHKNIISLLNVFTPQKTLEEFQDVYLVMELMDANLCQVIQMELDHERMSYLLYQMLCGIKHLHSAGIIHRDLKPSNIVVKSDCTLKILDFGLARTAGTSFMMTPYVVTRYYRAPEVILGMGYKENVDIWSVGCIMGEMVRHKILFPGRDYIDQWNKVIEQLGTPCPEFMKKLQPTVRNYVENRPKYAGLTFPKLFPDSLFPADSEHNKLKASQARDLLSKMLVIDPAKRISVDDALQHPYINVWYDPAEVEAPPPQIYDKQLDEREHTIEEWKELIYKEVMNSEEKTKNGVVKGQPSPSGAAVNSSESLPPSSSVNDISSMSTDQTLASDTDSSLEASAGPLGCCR
Chain of 3-phosphoinositide-dependent protein kinase 1 (Homo sapiens) (O15530 whole entry, looked up): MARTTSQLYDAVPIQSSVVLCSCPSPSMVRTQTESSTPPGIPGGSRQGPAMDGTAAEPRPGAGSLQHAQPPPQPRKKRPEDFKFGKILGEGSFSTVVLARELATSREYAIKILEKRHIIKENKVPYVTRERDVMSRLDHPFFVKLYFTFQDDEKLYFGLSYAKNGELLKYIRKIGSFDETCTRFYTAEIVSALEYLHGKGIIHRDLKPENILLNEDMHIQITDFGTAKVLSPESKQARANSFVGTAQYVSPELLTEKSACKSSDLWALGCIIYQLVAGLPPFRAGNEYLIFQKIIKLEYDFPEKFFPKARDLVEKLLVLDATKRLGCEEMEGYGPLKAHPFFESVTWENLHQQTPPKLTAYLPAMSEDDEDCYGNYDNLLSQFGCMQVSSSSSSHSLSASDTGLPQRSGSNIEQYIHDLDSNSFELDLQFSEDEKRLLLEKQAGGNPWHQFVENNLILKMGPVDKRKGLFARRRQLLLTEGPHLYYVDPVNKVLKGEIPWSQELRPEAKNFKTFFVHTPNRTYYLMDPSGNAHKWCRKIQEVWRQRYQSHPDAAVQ
Chain of Inhibitor of nuclear factor kappa-B kinase subunit beta (Homo sapiens) (O14920 whole entry): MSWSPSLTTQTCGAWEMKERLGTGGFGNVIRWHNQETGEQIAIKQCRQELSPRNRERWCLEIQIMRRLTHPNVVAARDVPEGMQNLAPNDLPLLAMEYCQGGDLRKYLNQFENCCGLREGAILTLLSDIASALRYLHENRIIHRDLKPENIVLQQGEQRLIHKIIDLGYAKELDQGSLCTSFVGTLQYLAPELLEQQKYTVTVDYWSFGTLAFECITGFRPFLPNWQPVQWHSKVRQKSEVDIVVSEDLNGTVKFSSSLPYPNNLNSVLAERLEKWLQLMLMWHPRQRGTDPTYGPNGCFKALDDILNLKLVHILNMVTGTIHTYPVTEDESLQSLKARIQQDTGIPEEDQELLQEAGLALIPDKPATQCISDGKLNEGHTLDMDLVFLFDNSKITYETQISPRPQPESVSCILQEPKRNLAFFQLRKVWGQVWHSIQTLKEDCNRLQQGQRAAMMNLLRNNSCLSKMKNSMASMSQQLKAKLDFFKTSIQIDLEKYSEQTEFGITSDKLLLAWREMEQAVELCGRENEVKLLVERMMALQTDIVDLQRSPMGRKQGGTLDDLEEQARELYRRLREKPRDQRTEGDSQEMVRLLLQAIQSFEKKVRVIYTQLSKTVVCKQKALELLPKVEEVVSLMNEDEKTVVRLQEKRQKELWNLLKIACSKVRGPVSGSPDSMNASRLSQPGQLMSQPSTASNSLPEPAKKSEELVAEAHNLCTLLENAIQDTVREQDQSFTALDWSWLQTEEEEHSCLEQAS
Chain of Ephrin type-A receptor 2 (Homo sapiens) (P29317 whole entry): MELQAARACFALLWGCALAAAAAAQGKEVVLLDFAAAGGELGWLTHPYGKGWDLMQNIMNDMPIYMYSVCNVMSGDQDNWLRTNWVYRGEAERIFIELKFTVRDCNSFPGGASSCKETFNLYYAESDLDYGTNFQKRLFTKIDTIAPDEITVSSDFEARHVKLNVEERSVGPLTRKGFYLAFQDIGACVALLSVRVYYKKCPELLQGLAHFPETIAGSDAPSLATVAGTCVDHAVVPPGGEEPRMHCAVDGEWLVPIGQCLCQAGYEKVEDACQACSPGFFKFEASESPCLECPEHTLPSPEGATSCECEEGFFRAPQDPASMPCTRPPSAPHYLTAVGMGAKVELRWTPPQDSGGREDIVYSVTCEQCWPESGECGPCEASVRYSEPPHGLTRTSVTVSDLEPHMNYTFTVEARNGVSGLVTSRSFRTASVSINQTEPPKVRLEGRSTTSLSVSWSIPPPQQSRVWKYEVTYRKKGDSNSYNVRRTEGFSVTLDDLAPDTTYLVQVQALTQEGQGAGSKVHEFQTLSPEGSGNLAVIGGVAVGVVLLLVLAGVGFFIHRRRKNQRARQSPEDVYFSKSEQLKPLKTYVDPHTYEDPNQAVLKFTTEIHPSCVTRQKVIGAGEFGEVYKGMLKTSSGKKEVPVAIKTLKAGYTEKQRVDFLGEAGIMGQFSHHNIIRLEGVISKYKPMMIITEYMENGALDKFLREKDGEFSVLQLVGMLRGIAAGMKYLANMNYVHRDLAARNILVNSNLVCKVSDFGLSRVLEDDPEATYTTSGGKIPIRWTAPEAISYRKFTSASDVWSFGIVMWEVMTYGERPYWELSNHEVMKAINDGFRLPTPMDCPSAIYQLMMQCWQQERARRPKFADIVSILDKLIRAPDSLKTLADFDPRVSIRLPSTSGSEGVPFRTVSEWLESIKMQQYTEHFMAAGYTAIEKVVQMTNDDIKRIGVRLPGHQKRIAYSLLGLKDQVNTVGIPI
Chain of Interleukin-1 receptor-associated kinase 4 (Homo sapiens) (Q9NWZ3 whole entry): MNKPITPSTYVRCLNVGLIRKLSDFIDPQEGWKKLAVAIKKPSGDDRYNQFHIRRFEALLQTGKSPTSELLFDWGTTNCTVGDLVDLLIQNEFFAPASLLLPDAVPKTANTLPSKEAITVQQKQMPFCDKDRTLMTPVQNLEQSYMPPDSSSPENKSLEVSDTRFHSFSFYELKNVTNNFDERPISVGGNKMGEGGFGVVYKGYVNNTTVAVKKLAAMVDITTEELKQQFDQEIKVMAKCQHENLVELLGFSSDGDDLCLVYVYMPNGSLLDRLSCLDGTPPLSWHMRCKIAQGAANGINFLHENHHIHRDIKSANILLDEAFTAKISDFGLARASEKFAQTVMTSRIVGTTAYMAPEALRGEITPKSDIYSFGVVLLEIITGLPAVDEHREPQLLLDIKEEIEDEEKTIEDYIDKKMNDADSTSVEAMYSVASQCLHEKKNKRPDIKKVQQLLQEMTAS
Chain of Serine/threonine-protein kinase Chk1 (Homo sapiens) (O14757 whole entry): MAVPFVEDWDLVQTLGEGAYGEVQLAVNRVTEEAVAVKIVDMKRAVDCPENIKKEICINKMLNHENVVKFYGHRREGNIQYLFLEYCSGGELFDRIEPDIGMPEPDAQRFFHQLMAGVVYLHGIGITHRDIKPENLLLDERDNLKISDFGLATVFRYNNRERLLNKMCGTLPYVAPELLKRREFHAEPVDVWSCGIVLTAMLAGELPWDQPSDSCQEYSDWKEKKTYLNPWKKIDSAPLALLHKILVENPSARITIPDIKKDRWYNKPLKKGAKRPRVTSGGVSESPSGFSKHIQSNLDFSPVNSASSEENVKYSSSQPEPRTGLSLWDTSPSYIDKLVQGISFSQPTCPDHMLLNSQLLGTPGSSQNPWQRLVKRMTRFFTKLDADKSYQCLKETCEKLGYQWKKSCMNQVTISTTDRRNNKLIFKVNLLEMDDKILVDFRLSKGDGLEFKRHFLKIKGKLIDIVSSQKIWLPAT

Activity [1]: 89%
Activity [2]: 100%
Activity [3]: 51%
Activity [4]: 23%
Activity [5]: 72%
Activity [6]: 76%
Activity [7]: 107%
Activity [8]: 97%
Activity [9]: 73%
Activity [10]: 86%
Activity [11]: 96%
Activity [12]: 82%
Activity [13]: 29%
Activity [14]: 79%
Activity [15]: 79%
Activity [16]: 103%
Activity [17]: 55%
Activity [18]: 100%
Activity [19]: 73%
Activity [20]: 82%
Activity [21]: 8%
Activity [22]: 87%
Activity [23]: 103%
Activity [24]: 93%
Activity [25]: 52%
SMILES: Cc1ccc(F)cc1-c1nc2[nH]nc(N)c2c2c1CCCC2

Source: ChEMBL document CHEMBL1926576, “Fragment based lead discovery of small molecule inhibitors for the EPHA4 receptor tyrosine kinase” (Eur J Med Chem, 2012)
